Test results reported in patent US12522580B2, “Fluorine-containing pyrimidine compounds, harmful fungus control agent, and method for producing fluorine-containing pyrimidine compounds” (UNIMATEC CO., LTD., priority 2021, dated 2026).

What was measured:
[1] = system: Gray mold germs (Botrytis cinerea, strain 2018105); assay: Evaluation test for gray mold (mycelial growth on PDA medium); format: cell-based; conditions: final concentration 500 ppm in PDA medium; mycelia diameter after two days at 27° C.; average of 3
Experimental: The fluorine-containing pyrimidine compound prepared in Example 1, 2, 3, 4, 12 or 16 was dissolved in DMSO and diluted to a concentration of 50000 ppm. To 3 ml of a dissolved PDA medium, 30 μL of diluted DMSO solution each was added and stirred with a pipette. The mixture was placed in a well of a 6-well plate and allowed to solidify (final concentration: 500 ppm, repeated 3 times each). Gray mold germs (Botrytis cinerea, strain 2018105) grown in a PDA medium was cut out together with the medium with a biopsy punch having a diameter of 0.4 cm, and placed on the center of the PDA medium in the 6-well plate containing the DMSO solution so as to be grown at 27° C. After two days, the diameters of mycelia were measured and the control value was calculated. The control value was calculated according to the following formula. In the formula described below, “untreated” represents PDA medium to which only DMSO was added as the test solution. [formula]

cucumber powdery mildew = assay: Evaluation test for powdery mildew of cucumbers (cucumber leaf disc); format: in vivo; conditions: blotch area after 12 days, 25° C.
Experimental: A fluorine-containing pyrimidine compound prepared in Examples 12, 13 or 15 was dissolved in acetone and diluted to a concentration of 500 ppm. Subsequently, a cucumber leaf disc (diameter 20 mm) was placed in a diluted acetone solution and completely wetted. The cucumber leaf disc was then placed so that the back surface of the cucumber leaf disc contacted a separately prepared plain agar medium, and air-dried. After air-drying, a cucumber powdery mildew spore suspension was evenly sprayed on the cucumber leaf disc and air-dried. The cucumber leaf disc was then allowed to stand in an incubator (25° C., illuminated for 12 hours), and after 12 days, the blotch area was examined to calculate the control value. The control value was calculated according to the following formula. In the following formula, “untreated” means that the cucumber leaf disc was wetted with only acetone as the test solution, and “untreated section” represents the corresponding section. A fluorine-containing pyrimidine compound prepared in Examples 12, 13 or 15 was dissolved in acetone and diluted to a concentration of 100 ppm. Subsequently, a cucumber leaf disc (diameter 20 mm) was placed in a diluted acetone solution and completely wetted. The cucumber leaf disc was placed so that the back surface of the cucumber leaf disc contacted a separately prepared plain agar medium, and air-dried. After air-drying, a cucumber powdery mildew spore suspension was evenly prayed on the cucumber leaf disc and air-dried. The cucumber leaf disc was then allowed to stand in an incubator (25° C., illuminated for 12 hours), and after 12 days, the blotch area was examined to calculate the control value. The control value was calculated according to the following formula. In the following formula, “untreated” means that the cucumber leaf disc was wetted with only acetone as the test solution, and “untreated section” represents the corresponding section. [formula] (Evaluation Test for Gray Mold (500 ppm))

Row | SMILES | Control value [1] | Control value (cucumber powdery mildew; 100 ppm in acetone) | Control value (cucumber powdery mildew; 500 ppm in acetone)
1 | CCCCc1ccc(Nc2nc(-c3ccccn3)nc(OC)c2C(F)(F)F)cc1 [Example 3, N-(4-butylphenyl)-6-methoxy-2-(2-pyridyl)-5-(trifluoromethyl)-4-pyrimidinamine] | 76.9 | – | –
2 | COc1nc(-c2ccccn2)nc(Nc2ccc(Cl)cc2)c1C(F)(F)F [Example 13, N-(4-chlorophenyl)-6-methoxy-2-(2-pyridyl)-5-(trifluoromethyl)-4-pyrimidinamine] | – | 80.0 | 98.8
3 | COc1nc(-c2ccccn2)nc(Nc2ccc(C)cc2)c1C(F)(F)F [Example 15, 6-methoxy-N-(4-methylphenyl)-2-(2-pyridyl)-5-(trifluoromethyl)-4-pyrimidinamine] | – | 100.0 | 100.0
4 | FC(F)(F)c1c(Cl)nc(-c2ccccn2)nc1Nc1ccccc1 [Example 16, 6-chloro-N-phenyl-2-(2-pyridyl)-5-(trifluoromethyl)-4-pyrimidinamine] | 92.4 | – | –
5 | COc1nc(-c2ccccn2)nc(Nc2ccccc2)c1C(F)(F)F [Example 1, 6-methoxy-N-phenyl-2-(2-pyridyl)-5-(trifluoromethyl)-4-pyrimidinamine] | 90.5 | – | –
6 | COc1nc(-c2ccccn2)nc(Nc2ccc(C)c(C)c2)c1C(F)(F)F [Example 4, 6-methoxy-N-(3,4-dimethylphenyl)-2-(2-pyridyl)-5-(trifluoromethyl)-4-pyrimidinamine] | 86.8 | – | –
7 | COc1nc(-c2ccccn2)nc(Nc2cccc(C)c2)c1C(F)(F)F [Example 2, 6-methoxy-N-(3-methylphenyl)-2-(2-pyridyl)-5-(trifluoromethyl)-4-pyrimidinamine] | 86.8 | – | –
8 | COc1nc(-c2ccccn2)nc(Nc2ccc(C)cc2C)c1C(F)(F)F [Example 12, 6-methoxy-N-(2,4-dimethylphenyl)-2-(2-pyridyl)-5-(trifluoromethyl)-4-pyrimidinamine] | 94.3 | 91.8 | 100.0
